# Experimental data as given in ChEMBL document CHEMBL3272053, “(exo, exo)-2-Aryltropane-3-carboxylic esters, hypoglycemic agents with accompanying analgesic activity” (J Med Chem, 1978).
# Active and inactive are the calls of the source. The rule behind the calls is not given here.
# Key:
# [1] = test system: Rattus norvegicus; assay: Hypoglycemic activity in Sprague-Dawley rat assessed as reduction of blood glucose level at 100 mg/kg, po by glucagon-impaired glucose disposal test relative to control; assay type: functional; set-up: scale not given: the % may be the effect or the level left
# [2] = test system: Rattus norvegicus; assay: Narcotic analgesic activity in fed Sprague-Dawley rat at 120 mg/kg, sc measured at 30 mins by D'Amour-Smith tail-flick test; assay type: functional; details: route subcutaneous
# [3] = test system: Mus musculus; assay: Analgesic activity in Swiss-Webster mouse assessed as reduction of acetylcholine-induced writhing at 75 mg/kg, sc relative to control; assay type: functional; set-up: scale not given: the % may be the effect or the level left; details: route subcutaneous
# [4] = test system: Rattus norvegicus; assay: Hypoglycemic activity in glucose loaded Sprague-Dawley rat assessed as reduction of blood glucose level at 100 mg/kg, po relative to control; assay type: functional; set-up: scale not given: the % may be the effect or the level left
# [5] = test system: Rattus norvegicus; assay: Narcotic analgesic activity in fasted Sprague-Dawley rat at 240 mg/kg, po measured at 15 mins by D'Amour-Smith tail-flick test relative to control; assay type: functional
# [6] = test system: Rattus norvegicus; assay: Toxicity in Sprague-Dawley rat assessed as tremor at 240 mg/kg, po; assay type: organism-based; set-up: dose 240 mg/kg, route oral; details: in vivo
# [7] = test system: Rattus norvegicus; assay: Toxicity in Sprague-Dawley rat assessed as rigidity at 240 mg/kg, po; assay type: organism-based; set-up: dose 240 mg/kg, route oral; details: in vivo
# [8] = test system: Rattus norvegicus; assay: Toxicity in Sprague-Dawley rat assessed as hyperexcitability at 240 mg/kg, po; assay type: organism-based; set-up: dose 240 mg/kg, route oral; details: in vivo
# [9] = test system: Rattus norvegicus; assay: Hypoglycemic activity in glucose loaded Sprague-Dawley rat assessed as reduction of blood glucose level at 100 mg/kg, po in presence of microsomal enzyme inhibitor SKF 525-A; assay type: functional, organism-based; set-up: dose 100 mg/kg
# [10] = test system: Rattus norvegicus; assay: Hypoglycemic activity in fasted Sprague-Dawley rat assessed as reduction of blood glucose level at 100 mg/kg, po relative to control; assay type: functional; set-up: scale not given: the % may be the effect or the level left
# [11] = test system: Rattus norvegicus; assay: Hypoglycemic activity in glucose loaded Sprague-Dawley rat assessed as reduction of blood glucose level at 64 mg/kg, po relative to control; assay type: functional; set-up: scale not given: the % may be the effect or the level left
# [12] = test system: Mus musculus; assay: Analgesic activity in Swiss-Webster mouse assessed as reduction of acetylcholine-induced writhing at 50 mg/kg, po relative to control; assay type: functional; set-up: scale not given: the % may be the effect or the level left
# [13] = test system: Rattus norvegicus; assay: Toxicity in Sprague-Dawley rat assessed as convulsion at 240 mg/kg, po; assay type: organism-based; set-up: dose 240 mg/kg, route oral; details: in vivo
# [14] = test system: Rattus norvegicus; assay: Hypoglycemic activity in Sprague-Dawley rat assessed as reduction of blood glucose level at 88 mg/kg, po by glucagon-impaired glucose disposal test relative to control; assay type: functional
# [15] = test system: Rattus norvegicus; assay: Narcotic analgesic activity in po dosed fasted Sprague-Dawley rat measured at 60 mins by D'Amour-Smith tail-flick test; assay type: functional; details: Rattus norvegicus, Sprague-Dawley, Tail, po, 1 h; read-out: ED50
# [16] = test system: Mus musculus; assay: Analgesic activity in sc dosed Swiss-Webster mouse assessed as reduction of acetylcholine-induced writhing; assay type: functional
# [17] = test system: Rattus norvegicus; assay: Hypoglycemic activity in Sprague-Dawley rat assessed as reduction of blood glucose level at 87 mg/kg, po by glucagon-impaired glucose disposal test in presence of microsomal enzyme inhibitor SKF 525-A; assay type: functional, organism-based; set-up: dose 87 mg/kg
# [18] = Drug level in glucose loaded Sprague-Dawley rat urine treated with (RS-exo,exo)-8-methyl-2-(2-thienyl)-8-azabicyclo[3.2.1]octane-3-carboxylate at 20 mg, po administered 3 to 6 hrs measured for 24 hrs by TLC/mass spectrographic analysis; assay type: ADME, organism-based; details: in vivo
# [19] = test system: Mus musculus; assay: Toxicity in Swiss-Webster mouse assessed as stimulation of straub tail at 150 mg/kg, po after 15 to 25 mins; assay type: organism-based; set-up: dose 150 mg/kg, route oral; details: in vivo
# [20] = Drug level in glucose loaded Sprague-Dawley rat urine treated with methyl (exo,exo)-8-(l-pentyl)-2-(2-thienyl)-8-azabicyclo[3.2.1]octane-3-carboxylate at 20 mg, po administered 3 to 6 hrs measured for 24 hrs by TLC/mass spectrographic analysis; assay type: ADME, organism-based; details: in vivo
# [21] = test system: Rattus norvegicus; assay: Hypoglycemic activity in Sprague-Dawley rat assessed as reduction of blood glucose level at 87 mg/kg, po by glucagon-impaired glucose disposal test relative to control; assay type: functional; set-up: scale not given: the % may be the effect or the level left
# [22] = test system: Rattus norvegicus; assay: Hypoglycemic activity in Sprague-Dawley rat assessed as reduction of blood glucose level at 89 mg/kg, po by glucagon-impaired glucose disposal test relative to control; assay type: functional; set-up: scale not given: the % may be the effect or the level left
# [23] = test system: Rattus norvegicus; assay: Hypoglycemic activity in glucose loaded Sprague-Dawley rat assessed as reduction of blood glucose level at 89 mg/kg, po relative to control; assay type: functional; set-up: scale not given: the % may be the effect or the level left
# [24] = test system: Rattus norvegicus; assay: Hypoglycemic activity in glucose loaded Sprague-Dawley rat assessed as reduction of blood glucose level at 89 mg/kg, po in presence of microsomal enzyme inhibitor SKF 525-A; assay type: functional, organism-based; set-up: dose 89 mg/kg
# [25] = test system: Rattus norvegicus; assay: Hypoglycemic activity in glucose/glycogen loaded Sprague-Dawley rat assessed as reduction of blood glucose level at 87 mg/kg, po; assay type: functional, organism-based; set-up: dose 87 mg/kg
# [26] = test system: Rattus norvegicus; assay: Narcotic analgesic activity in fasted Sprague-Dawley rat at 240 mg/kg, po measured at 60 mins by D'Amour-Smith tail-flick test relative to control; assay type: functional
# [27] = test system: Mus musculus; assay: Analgesic activity in Swiss-Webster mouse assessed as reduction of acetylcholine-induced writhing at 25 mg/kg, sc relative to control; assay type: functional; set-up: scale not given: the % may be the effect or the level left; details: route subcutaneous
compound,measurement,setting,value
COC(=O)[C@H]1C[C@H]2CC[C@H]([C@H]1c1cccs1)N2Cc1ccccc1,Activity,[1],<20%
same,Activity,[2],<20%
same,Activity,[3],33%
CCOCCN1[C@@H]2CC[C@@H]1[C@@H](c1cccs1)[C@@H](C(=O)OC)C2,Activity,[4],73%
same,Activity,[5],100%
same,Activity,[3],67%
same,Activity,[6],Toxic
same,Activity,[7],Toxic
same,Activity,[8],Toxic
same,Activity,[9],inactive
COC(=O)[C@H]1C[C@H]2CC[C@H]([C@H]1c1cccs1)N2CCc1ccccc1,Activity,[10],29%
same,Activity,[5],96%
same,Activity,[3],27%
COC(=O)[C@H]1C[C@H]2CC[C@H]([C@H]1c1cccs1)N2CCCO.Cc1ccc(S(=O)(=O)O)cc1,Activity,[11],27%
same,Activity,[5],92%
same,Activity,[12],33%
same,Activity,[13],Toxic
same,Activity,[6],Toxic
same,Activity,[7],Toxic
COC(=O)[C@H]1[C@@H](OC(=O)c2ccccc2)C[C@@H]2CC[C@H]1N2C,Activity,[14],Active
COC(=O)[C@H]1C[C@H]2CC[C@@H](N2)[C@H]1c1cccs1.Cl,ED50,[15],43 mg/kg
same,ED50,"[16]; Mus musculus, Swiss-Webster, sc, read-out: ED50",3.3 mg/kg
same,Activity,[17],Active
same,Drug metabolism,[18],metabolite_detected
same,Activity,[19],Toxic
same,Drug metabolism,[20],metabolite_detected
same,Activity,[21],43%
COC(=O)[C@H]1C[C@H]2CC[C@H]([C@H]1c1cccc(OC)c1)N2C.Cl,Activity,[22],24%
COC(=O)[C@H]1C[C@H]2CC[C@H]([C@H]1c1cccs1)N2CCO.Cl,Activity,[23],72%
same,Activity,[5],100%
same,Activity,[3],73%
same,Activity,[13],Toxic
same,Activity,[7],Toxic
same,Activity,[8],Toxic
same,Activity,[24],Active
COC(=O)[C@H]1CCCN(C)[C@@H]1c1cccs1 (relative stereo),Activity,[25],inactive
CCCOC(=O)[C@H]1C[C@H]2CC[C@H]([C@H]1c1cccs1)N2C,Activity,[1],<20%
same,Activity,[26],<20%
same,Activity,[27],27%
CCOC(CN1[C@@H]2CC[C@@H]1[C@@H](c1cccs1)[C@@H](C(=O)OC)C2)OCC,Activity,[10],47%
same,Activity,[5],87%
same,Activity,[3],27%
COC(=O)[C@H]1C[C@H]2CC[C@H]([C@H]1c1ccccc1)N2C (stereo in doubt; (+)-5),Activity,[26],59%
same,ED50,[16],11 mg/kg
same,Activity,[6],Toxic
CC(C)OC(=O)[C@H]1C[C@H]2CC[C@H]([C@H]1c1ccccc1)N2C.Cl,Activity,[22],28%
CCCCN1[C@@H]2CC[C@@H]1[C@@H](c1cccs1)[C@@H](C(=O)OC)C2,Activity,[10],34%
same,Activity,[5],88%
same,Activity,[27],20%
